Measurements published in US10117848B2, “Highly water-soluble salts of a short acting phenylalkylamine calcium channel blocker and uses thereof” (Milestone Pharmaceuticals Inc., priority 2015, dated 2018).

Legend:
[1] = test system: nasal epithelium; assay: Permeation through the nasal epithelium with EDTA; conditions: use of EDTA in the formulation
From the text: The nasal vestibule, which accounts for approximately 3-4% of the surface area of the nasal cavity, lacks tight junctions altogether and is thus not affected by calcium chelating agents. […] As such, it has been postulated that the nasal epithelium is not susceptible to permeability modulation by EDTA (Aungst, et al., Pharma. Res., 1998, 5:305-308). Additionally, the ability of EDTA to increase permeation of a compound through the nasal epithelium is attenuated as the molecular weight of the compound increases (Nakanishi, et al., Chem. Pharm. Bull., 1984, 32:1628-1632).

[2] = Homogeneity (no observable precipitation) of concentrated aqueous solutions on storage; format: physicochemical
[3] = test system: patients suffering from an episode of PSVT; assay: Nasal administration of acetate salt solutions to patients in a PSVT episode, monitored by electrocardiography; format: in vivo, human
From the text: A common method of measuring the effectiveness of a therapeutic agent in terminating an episode of a cardiac arrhythmia, such as PSVT, is by analysis of an electrocardiogram (ECG) recorded from a patient experiencing such an episode. […] One of the key features of healthy cardiac signaling is a temporal delay between the initiation of atrial and ventricular action potentials. A delay between signaling in the atria and ventricles is necessary for efficient pumping of blood. Signaling in the atria must proceed first, such that all blood in the atrial chambers is expelled into the ventricles before the ventricles contract. […]
It has been shown that an increase of at least 10% in the PR segment of an […] recorded from a patient suffering from a cardiac arrhythmia correlates well with a termination of the PSVT episode. […] The solutions that were administered to patients contained varying concentrations of the acetate salt of compound I. During the study, a solution containing a particular concentration of the acetate salt of compound I was administered to a patient experiencing an episode of PSVT, and the patient was monitored by electrocardiography throughout the duration of the experiment. […]

[4] = test system: patients suffering from an episode of PSVT; conditions: therapeutic dose, intravenous; cited from earlier work
[5] = Solubility in aqueous solution; format: physicochemical; conditions: acid addition salts of compound I
[6] = test system: patients treated for an episode of PSVT; conditions: intravenous; cited from earlier work
[7] = 300 mg/mL, 1 eq methanesulfonic acid, 10 mM sodium acetate, 5 mM disodium EDTA, pH 4.5
[8] = 350 mg/mL, 1 eq acetic acid, pH 4.5 with 3.6 M sulfuric acid
[9] = 400 mg/mL, 1 eq methanesulfonic acid, 10 mM sodium acetate, 5 mM disodium EDTA, pH 4.5

For `COC(=O)c1cccc(CCN(C)CCCC(C#N)(c2ccc(OC)c(OC)c2)C(C)C)c1` (stereo not shown) [compound I, methyl 3-(2-((4-cyano-4-(3,4-dimethoxyphenyl)-5-methylhexyl)(methyl)amino)ethyl)benzoate], the “permeation through the nasal epithelium” value [1] was “increased the permeation”, the “homogeneity at 2-5° C.” value [2, 7] was “remains homogeneous” and the “homogeneity at room temperature” value [2, 7] was “remains homogeneous”. The “time solution remains homogeneous at 0° C.” value [2, 7] was “at least 7 days”, the “homogeneity at room temperature” value [2, 8] was “remains homogeneous” and the “time solution remains homogeneous at 10° C.” value [2, 8] was “at least 3 days”. For the same compound, the “homogeneity at 2-5° C.” value [2, 9] was “remains homogeneous”, the “homogeneity at room temperature” value [2, 9] was “remains homogeneous” and the “time solution remains homogeneous at 0° C.” value [2, 9] was “at least 7 days”. The “homogeneity at room temperature” value ([2]; highly concentrated solutions, 0.5-1.5 molar equivalents of acetic acid or methanesulfonic acid) was “remain homogeneous”, the “homogeneity at room temperature” value ([2]; over 500 mg/mL, 1 eq acetic acid, pH 4.5 with 3.6 M sulfuric acid) was “remains homogeneous” and the “effectiveness in terminating an episode of PSVT” value ([3]; dosage containing 60 mg of compound I) was “therapeutically effective”.

In the case of `COc1ccc(CCN(C)CCCC(C#N)(c2ccc(OC)c(OC)c2)C(C)C)cc1OC` (stereo not shown) [verapamil, 2-(3,4-dimethoxyphenyl)-5-[2-(3,4-dimethoxyphenyl)ethyl-methylamino]-2-propan-2-ylpentanenitrile], the PR prolongation [4] is listed as “at least 10%” and the “efficacy for terminating the PSVT episode” value [4] is listed as 85-90%.

For `CC(=O)O.COC(=O)c1cccc(CCN(C)CCC[C@@](C#N)(c2ccc(OC)c(OC)c2)C(C)C)c1` [acetate salt of compound I], the “solubility in aqueous solution” value [5] was “high solubility” and the “median PR prolongation” value ([3]; solutions containing 60 mg or greater of compound I, patients experiencing a PSVT episode, ECG) was “greater than 10%”.

For `OC[C@H]1O[C@@H](n2cnc3c(N[C@@H]4CCOC4)ncnc32)[C@H](O)[C@@H]1O` [tecadenoson], the “average PR prolongation” value [6] is given as 8.5%, the “efficacy of PSVT termination” value [6] is given as “approximately 86%” and the “patients treated who experienced relief from an episode of PSVT” value [6] is given as 32 out of 37.
